Test results taken from patent US20230348419A1, “BIAMINOQUINOLINES AND NANOFORMULATIONS FOR CANCER TREATMENT” (The Regents of the University of California, priority 2019, published 2023).
Like-named read-outs stand apart in the source and are kept apart here.

Tests used:
[1] = Drug loading using BAQ13 NPs; assay type: physicochemical; conditions: for PDI / Size/diameter: BAQ13 NPs loaded with the drug or dye; for Encapsulation efficiency / Drug-loading content: drug or dye loaded in BAQ13 NPs; for Drug-loading content: mass ratio
Protocol: (§1) Preparation and characterization of BAQ ONNs. NPs were prepared through the re-precipitation method. BAQ derivatives in methanol were added dropwise into MilliQ water while stirring for 5 min (volume ratio, 1:10), and then homogenous NPs were obtained after rotary evaporation (40° C., 20 min), followed by the characterization with Zetasizer Nano ZS (Malvern). The TEM samples were prepared by dropping 0.5 mM NPs on carbon square mesh and dried naturally, which were then observed under the Talos L120C TEM (FEI) at an accelerating voltage of 80 kV. To determine the drug content in nanoformulations, the prepared drug-loaded NPs were cut off by centrifugal filter (ultracel-10 kDa, Millipore), and the absorbance of filtrate (diluted with DMSO, 1:10, volume ratio) was measured for calculation of drug concentrations.
Next investigation was whether liposome-like BAQ ONNs can encapsulate additional agents. Upon nanoprecipitation of BAQ13 and various agents, homogeneous NPs with monomodal size distributions spontaneously formed (Table 2 and FIG. 9G).

[2] = Nanoparticle characterization of BAQ NPs (DLS, TEM); assay type: physicochemical; conditions: assembled NPs in water; for PDI / Size (nm): DLS
Protocol: as §1

[3] = system: various cancer cell lines; test: Preliminary MTS screening, 24 h; assay type: cell-based; conditions: 24 h MTS
Protocol: To verify the therapeutic effects of BAQ12-BAQ18, a preliminary screening was conducted using an MTS assay on various cancer cell lines. […] This decrease was due to gradual declines in the detergence and H^+ buffering capacity of compounds. Based on the results above, BAQ12 and BAQ13 were then selected as representatives for construction of BAQ ONNs in the following studies.
(§2) Cell viability, cell growth and colony formation. Cell viability was assessed by the MTS assay. Briefly, cells in 96-well plates (4,000 cell per well) were treated as indicated, followed by the incubation with MTS regents for 4 h. OD values (490 nm) were determined via a microplate reader. Results were shown as the average cell viability calculated from the formula of [(ODtreat−ODblank)/(ODcontrol−ODblank)×100%]. Drug combination data were analyzed by Combenefit 2.02. In cell growth assay, cells in 6-well plates (50,000 cell per well) were treated as indicated and were counted manually every 24 h. Colony formation assay was also performed on 6-well plates with a starting density of 1,000-2,000 cells per well. After incubated as indicated for 10-20 days, cells were washed with PBS and stained with the solution of crystal violet and methanol for 20 min.

[4] = system: three pancreatic cancer cell lines (MIA PaCa-2, BxPC-3, and PANC-1) and two colon cancer cell lines (HT29 and HCT116); test: 48 h MTS assay on pancreatic and colon cancer cell lines; assay type: cell-based
Protocol: as §2
In vitro antitumour activity of BAQ derivatives. To systematically investigate the antitumour effects in vitro, three pancreatic cancer cell lines (MIA PaCa-2, BxPC-3, and PANC-1) and two colon cancer cell lines (HT29 and HCT116) were selected for a 48 h MTS assay. […] The improved anticancer activity of BAQ ONNs is attributable to their multiple functions in inducing LMP, lysosomal dysfunction and autophagy inhibition in cancer cells; these effects are considered to be important triggers of apoptosis. To examine the proapoptotic effects of BAQ ONNs, apoptosis signals in MIA PaCa-2 and HT29 cells was subsequently detected. […] Lys05, the control, increased apoptotic signals in a concentration-dependent manner, but its effect at a high concentration close to the IC50 was still milder than those of the low concentrations of BAQ ONNs.

MIA PaCa-2 cells = test: RNA sequencing, differentially expressed genes; assay type: cell-based, human; conditions: 5 μM, 24 h, vs vehicle
Protocol: RNA-seq. Total RNA was extracted by the RNeasy Mini Kit (Qiagen, Germany) from the treated MIA PaCa-2 cells (5 μM, 24 h). Samples were submitted to the UC Davis Comprehensive Cancer Center's Genomics Shared Resource (GSR) for RNA-Seq analysis. Stranded RNA-Seq libraries were prepared from 100 ng total RNA using the NEBNext Ultra Directional RNA Library Prep Kit (New England BioLabs). Subsequently, libraries were combined for multiplex sequencing on an Illumina HiSeq 4000 System (2×150 bp, paired-end, >20×10^6 reads per sample). The data of normalized genes read counts were analyzed using fold change and t test. The Differentially expressed genes (DEGs) were collected for the signaling pathways enrichment by Funrich software 3.1.3. The gene sets were from MSigDB database (Broad Institute). GSEA was performed using GSEA version 3.0 in KEGG gene sets category online, with the following parameters: n=1,000 permutations, where p-adjust <0.05, and FDR <0.05 were considered significant.

BXPC-3 = test: MTS cell viability assay; assay type: cell-based, human; conditions: 24 h; read-out: IC50 (μM) in the 24 h treatment BXPC-3
Protocol: (§3) Cell line and cell culture. The human pancreatic cancer cell lines (MIA PaCa-2, BXPC3, and PANC-1) were originally purchased from ATCC and were kindly provided by Dr. Shiro Urayama's Lab. HT29, HCT116, H460, MCF7, NIH/3T3, and IMR-90 cell lines were purchased from ATCC. Bone marrow cells were collected from the leg bone marrows of FVB/N mice. All the cells were cultured at 37° C. in a humidified atmosphere of 5% CO2/95% air using the corresponding medium supplemented with 10% fetal bovine serum, […] according to ATCC protocol. All the cell lines have been tested for mycoplasma contamination routinely.
as §2

PANC-1 = test: MTS cell viability assay; assay type: cell-based, human; conditions: 24 h; read-out: IC50 (μM) in the 24 h treatment PANC-1
Protocol: as §3, §2

MIA PaCa-2 = test: MTS cell viability assay; assay type: cell-based, human; conditions: read-out: IC50 (μM) in the 24 h treatment MIA PaCa-2
Protocol: as §3, §2

H460 = test: MTS cell viability assay; assay type: cell-based; conditions: 24 h; read-out: IC50 (μM) in the 24 h treatment H460
Protocol: as §3, §2

MCF-7 = test: MTS cell viability assay; assay type: cell-based; conditions: 24 h; read-out: IC50 (μM) in the 24 h treatment MCF-7
Protocol: as §3, §2

HT29 = test: MTS cell viability assay; assay type: cell-based; conditions: read-out: IC50 (μM) in the 24 h treatment HT29
Protocol: as §3, §2

Red blood cells = test: pH-dependent haemolysis test; assay type: cell-based; conditions: whole pH range, same concentration (50 μM, 4 h)
Protocol: After centrifugation at 500×g for 5 min, the extent of haemolysis was spectrophotometrically determined according to the amount of haemoglobin in supernatants (540 nm). The haemolysis assay was used to assess the pH-dependent detergence ability and toxicity of NPs.

[5] = Titration with hydrochloric acid (pH buffering capacity); assay type: physicochemical; conditions: 1 mM, 0.1 M HCl

Compound	PDI [1]	Size/diameter [1] [nm]	Encapsulation efficiency [1] [%]	Drug-loading content [1] [%]	Zeta Potential (mV) [2] [mV]	PDI [2]	Size (nm) [2] [nm]	IC50 (BXPC-3) [µM]	IC50 (PANC-1) [µM]	IC50 (MIA PaCa-2; 24 h) [µM]	IC50 (H460) [µM]	IC50 (MCF-7) [µM]	IC50 (HT29; 24 h) [µM]	further results
CC[C@]1(O)C[C@@H]2CN(CCc3c([nH]c4ccccc34)[C@@](C(=O)OC)(c3cc4c(cc3OC)N(C)[C@H]3[C@@](O)(C(=O)OC)[C@H](OC(C)=O)[C@]5(CC)C=CCN6CC[C@]43[C@@H]65)C2)C1 [Vinblastine]	0.133	60	95	50										
CCCCCCCCCCCCNC(=O)[C@@H](N)COC.Cl [MSDH, O-Methyl-Serine-Dodecylamide Hydrochloride]														haemolytic response to pH (Red blood cells): only a weak haemolytic response to pH; pH plateau upon titration with HCl [5]: 6.2; IC50 (MIA PaCa-2; Homo sapiens, MIA PaCa-2, 24 h): 55.5 ± 7.1 µM; IC50 (HT29; Homo sapiens, HT-29, 24 h): 30.3 ± 4.8 µM
COc1cc([C@@H]2c3cc4c(cc3[C@@H](O[C@@H]3O[C@@H]5CO[C@@H](C)O[C@H]5[C@H](O)[C@H]3O)[C@H]3COC(=O)[C@H]23)OCO4)cc(OC)c1O [Etoposide]	0.104	69	86	50										
COc1ccc(-c2nc(-c3cc(C(F)(F)F)cc(C(F)(F)F)c3)n(Cc3ccc(C(N)=O)cc3)c2-c2ccc(OC)cc2)cc1 [Apoptozole]	0.099	85	93	50										
CC1(C)CCC2=C(O1)c1ccccc1C(=O)C2=O [β-lapachone]	0.047	128	95	33										

Further lines, with some results ahead:

PDI [1]	Size/diameter [1] [nm]	Encapsulation efficiency [1] [%]	Drug-loading content [1] [%]	Zeta Potential (mV) [2] [mV]	PDI [2]	Size (nm) [2] [nm]	IC50 (BXPC-3) [µM]	IC50 (PANC-1) [µM]	IC50 (MIA PaCa-2; 24 h) [µM]	IC50 (H460) [µM]	IC50 (MCF-7) [µM]	IC50 (HT29; 24 h) [µM]	Compound	further results
				39.7 ± 1.9	0.097	99.1 ± 2.1	3.1 ± 0.2	4.3 ± 1	4.2 ± 1	2.2 ± 0.4	3.7 ± 0.3	3 ± 1.1	CCCCCCCCCCCCCN(CCNc1ccnc2cc(Cl)ccc12)CCNc1ccnc2cc(Cl)ccc12 [BAQ13]	fold higher potency than HCQ [3]: ~20 fold; fold higher potency than Lys05 [3]: ~3 fold; fold higher potency than MSDH [3]: ~10 fold; effect alone versus combination treatment with Lys05 and MSDH [4]: more effective than combination treatment with Lys05 and MSDH; fold more potent than HCQ [4]: 30 fold; downregulated genes (MIA PaCa-2 cells): 181; upregulated genes (MIA PaCa-2 cells): 209; differentially expressed genes (DEGs) (MIA PaCa-2 cells; fold change≥2 and p value≤0.05): 390
				36.4 ± 1.5	0.069	102.5 ± 3.1	2.9 ± 0.6	4.5 ± 0.9	4.1 ± 0.8	2.7 ± 0.5	3.1 ± 0.1	3.5 ± 1.2	CCCCCCCCCCCCN(CCNc1ccnc2cc(Cl)ccc12)CCNc1ccnc2cc(Cl)ccc12 [BAQ12]	fold higher potency than HCQ [3]: ~20 fold; fold higher potency than Lys05 [3]: ~3 fold; fold higher potency than MSDH [3]: ~10 fold; effect alone versus combination treatment with Lys05 and MSDH [4]: more effective than combination treatment with Lys05 and MSDH; fold more potent than HCQ [4]: 30 fold
				38.0 ± 2.9	0.086	107.3 ± 2.6	17.2 ± 2	34.5 ± 3.9	42 ± 11.7	24.1 ± 0.4	> 60	16.1 ± 2.5	CCCCCCCCCCCCCCCN(CCNc1ccnc2cc(Cl)ccc12)CCNc1ccnc2cc(Cl)ccc12 [BAQ15]	
